The results in this text go back to patent US9676786B2, “Pharmacologically active compounds” (The University of Liverpool, priority 2013, dated 2017).

The target in one data set is α1 glycine receptor (Homo sapiens (Human), UniProt P23415). Nature of the data set: Expression and electrophysiological characterization of glycine receptor activity (patch/voltage clamp). It is filed as cell-based. To be noted: modulation of agonist induced currents at glycine EC20; means ± s.d. As for the experimental part: Human embryonic kidney (HEK) 293 cells (ATCC CRL 1573) and/or Xenopus laevis oocytes were used for expressing the human a1-3 glycine receptor subunit as well as human a1, b3, g2 GABA receptor subunit cDNAs inserted into mammalian expression vectors. Patch- and voltage-clamp recording from receptor expressing cells was performed at a holding potential of −70 mV in normal Ringer solution and digitized for analyses. Dose-response curves of agonist induced peak currents (I) were normalized to the maximal current value obtained and fitted with the sigmoidal Hill equation using a Gauss Marquardt iteration, where EC50 represents the glycine/GABA concentration resulting in a half maximal response. Effects of the compounds tested on agonist induced currents were analysed after superfusing the cells with the respective compound for 5 seconds prior to and during agonist application and dose-response curves of modulated currents were determined in the presence of agonist concentrations eliciting a response corresponding to 20% of the maximal inducible current (EC20 value). Results represent means±s.d. and the significance of the data was evaluated using Student's paired t test and considered to be statistically significant at P<0.05.
α1 glycine receptor, sequence (P23415 29-457 limits assumed): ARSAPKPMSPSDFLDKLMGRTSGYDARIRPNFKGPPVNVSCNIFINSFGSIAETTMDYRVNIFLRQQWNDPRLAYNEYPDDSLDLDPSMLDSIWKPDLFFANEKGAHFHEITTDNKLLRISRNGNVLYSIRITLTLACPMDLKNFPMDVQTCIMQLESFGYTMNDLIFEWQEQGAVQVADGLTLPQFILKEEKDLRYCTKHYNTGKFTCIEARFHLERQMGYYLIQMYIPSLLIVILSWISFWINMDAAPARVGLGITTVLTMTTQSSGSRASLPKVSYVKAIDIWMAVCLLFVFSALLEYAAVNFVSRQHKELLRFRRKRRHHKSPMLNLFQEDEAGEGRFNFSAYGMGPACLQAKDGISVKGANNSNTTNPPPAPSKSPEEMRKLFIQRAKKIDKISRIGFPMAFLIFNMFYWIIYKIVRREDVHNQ

Data set [1] is described as follows: Pharmacokinetic evaluation, oral dosing in rats. It is filed as in vivo, rat. The following applies: 10 mg/kg oral, SSV, non-fasted rats. On the procedure: • Dose—10 mg/kg (5 mL/kg) • Route—ORAL • Vehicles—10% DMSO/10% Solutol and SSV • Time—24 h • Procedure Number—6 Vehicles • 10% DMSO/10% Solutol/80% Saline • 1) Compound was weighed out into a clean vial. • 2) DMSO was added into the vial; the vial was vortexed and sonicated it for 15 min. • 3) Solutol HS 15 was heated at 50° C. until a liquid formed, and then was added into the vial. The vial was vortexed for 1-2 min. • 4) 0.9% Saline solution was added to the vial. The vial was vortexed and then sonicated for 10 min. Standard Suspension Vehicle (SSV) • 1) A solution of SSV was made using 0.5% Sodium carboxymethylcellulose, 0.5% Benzyl alcohol, 0.4% Tween80 and 98.6% saline (0.9%) • 2) Compound was weighed out into a clean vial • 3) SSV solution was added into the vial; the vial was vortexed and sonicated it for 15 min. Fasted Rats
Fasted rats were fasted overnight and given access to food immediately after dosing.
• 1) Rats were manually restrained and given a 10 mg/kg oral dose of compound at 5 mL/kg. • 2) At designated time points (0.25, 0.5, 1, 3, 5, 7 and 24 hours) the rats were anaesthetised using isoflurane. • 3) Approximately 300 μL of blood was taken from the tail vein using a 1.5 inch needle treated with heparin and collected into 1.5 mL eppendorf tubes. • 4) After sampling, pressure was applied to the puncture until bleeding ceased. The animals were returned to their cages and given free access to food and water. • 5) Blood samples were stored on ice and then centrifuged at 13,000 rpm for 15 min to separate the plasma. • 6) 150 μL of the plasma was treated with 300 μL of ACN:MeOH (1:1) solution containing the internal standard. The samples were then centrifuged for a further 15 min at 13,000 rpm. • 7) 200 μL of the supernatant was collected and placed in LC-MS vials for analysis. All samples were stored at −80° C. Results

Data set [2] relates to neuropathic rats. Nature of the data set: Comparison of LT-01-25 and LT-01-89: ipsilateral paw withdrawal thresholds to mechanical pressure in neuropathic rats. To be noted: 30 mg/kg p.o., male SD rats. The class given is in vivo, rat. On the procedure:
Male, SD rats. n=6/group. Vehicle: 10% DMSO/10% Solutol HS15/80% saline.
• 1) In rats a peripheral neuropathy was induced by partial ligation of the sciatic nerve in one hind limb. • 2) Two weeks (12-15 days) after induction of peripheral neuropathy stable mechanical (tactile) allodynia was induced in the hind paw of the affected limb. • 3) Five treatment groups of male SD rats (n=8) were used: vehicle control (drug formulation), 3 drug doses, and a positive control, lamotrigine (30 mg/kg). Animals were randomized between groups and the experiment was carried out using blinded conditions. The study was split with n=4/group in each experiment. • 4) Baseline behavioural measurements were obtained prior to surgery and at intervals post-surgery. Predose behavioural measurements were obtained by measuring paw withdrawal thresholds 12-15 days following nerve ligation. • 5) Compound efficacy was determined by measuring paw withdrawal thresholds at specified intervals following vehicle/compound treatment. Methods Animals
Animals were maintained in a controlled lighting environment and given food and water ad libitum. Male Sprague Dawley rats (120-140 g at time of surgery) were used.
Rats were fasted overnight with free access to water and fed 4 hours post-dose.
Tests compounds as well as Lamotrigine (30 mg/kg, volume: 10 ml/kg)) were prepared in the designated formulation (10% DMSO, Solutol HS 15/80% and 0.9% saline for p.o. administration) and administered via the chosen route.
Rats were anaesthetised (isoflurane/O2 inhalation), the left sciatic nerve was exposed at mid-thigh level through a small incision and ⅓ to ½ of the nerve thickness tightly ligated within a 7.0 silk suture. The wound was closed with skin clips. Animals were allowed to recover and compounds administered 12-15 days following surgery.
Compound/vehicle were administered at specified doses. Following treatment, further readings were taken; 1, 3, 6 and 24 hour after p.o. administration.

The next data set in a line: Rat microsomal stability. The class given is in vitro ADME. The following applies: Rat microsomes, 1 μM. The text has this: Rat and human microsomal stability data was obtained using well established protocols known to those skilled in the art.
Data set [3] is described as follows: Human microsomal stability. It is filed as in vitro ADME. The following applies: human microsomes, 1 μM. As for the experimental part: The metabolic stability assay was performed by incubating each test compound (1 μM) with human liver microsomes in duplicate at 37° C. and 0.4 mg/mL protein concentration. The metabolic reaction was initiated by the addition of a NADPH-regenerating system (i.e. NADPH is the cofactor required for CYP450-mediated metabolism) and quenched at various time points over the 60 minute incubation period by the addition of acetonitrile. Control samples (containing no NADPH) were included (and quenched at 2, 30 and 60 minutes) to monitor for potential degradation in the absence of cofactor. Samples were analysed by UPLC-MS (Waters/Micromass Xevo G2 QTOF) under positive electrospray ionisation and MS spectral data acquired in a mass range of 80 to 1200 Daltons.
Test compound concentration versus time data were fitted to an exponential decay function to determine the first-order rate constant for substrate depletion. In cases where clear deviation from first-order kinetics was evident, only the initial linear portion of the profile was utilised to determine the degradation rate constant (k). Each substrate depletion rate constant was then used to calculate: [1] a degradation half-life, [2] an in vitro intrinsic clearance value (CLint, in vitro); [3] a predicted in vivo hepatic intrinsic clearance value (CLint); [4] a predicted in vivo blood clearance value (CLblood); and [5] a predicted in vivo hepatic extraction ratio (EH).
• 1) The substrate concentration employed is well below the apparent KM for substrate turnover; and, • 2) There is no significant product inhibition, nor is there any mechanism-based inactivation of enzyme. The use of hepatic microsomes in the prediction of the in vivo hepatic extraction ratio has two further inherent assumptions (Obach, 1999) which: • 1) NADPH-dependent oxidative metabolism predominates over other metabolic routes (i.e. direct conjugative metabolism, reduction, hydrolysis, etc.); and, • 2) Rates of metabolism and enzyme activities in vitro are truly reflective of those that exist in vivo. Data should be considered within these terms of reference.

Data set [4] deals with neuropathic rats. The data set is described as follows: Comparison of LT-01-25 and LT-01-89: ipsilateral withdrawal latencies to cold (10° C.) stimulus in neuropathic rats. It is filed as in vivo, rat. To be noted: 30 mg/kg p.o., male SD rats.
Data set [5] in a line: Cerebrospinal fluid (CSF) levels after oral dosing. It is filed as in vivo. To be noted: p.o. dose 3 mg/kg, after 2 hr, fasted male SD rat.
Data set [6] deals with neuropathic rats. The data set is described as follows: Mechanical hyperalgesia, paw withdrawal thresholds in neuropathic rats (partial sciatic nerve ligation). The class given is in vivo, rat. The following applies: neuropathic Wistar rats; positive control. The text has this: (§1) The wound was closed with skin clips.
(§2) Control animals received vehicle alone.

Data set [7] concerns neuropathic rats. Nature of the data set: Cold sensitivity (10° C. cold plate), paw withdrawal latencies in neuropathic rats. To be noted: neuropathic Wistar rats; positive control. It is filed as in vivo, rat.
Source text: as §1, §2

Turning to `CC(C)c1cc(C(=O)N2CCO[C@H](C)C2)cc(C(C)C)c1O` [Example 2, (R)-(4-(hydroxy)-3,5-diisopropylphenyl)(2-methylmorpholino)methanone], the midpoint of the response on α1 glycine receptor, the EC50, lay at 0.06 nM.

For `CC(C)c1cc(C(=O)N2CC(F)C2)cc(C(C)C)c1O` [Example 3, (3-Fluoroazetidin-1-yl)(4-hydroxy-3,5-diisopropylphenyl) methanone], at α1 glycine receptor, the EC50 (commonly the concentration giving half of the maximal effect) is 0.43 nM.

In the case of `CC(C)c1cc(C(=O)N2CCN(C)CC2)cc(C(C)C)c1O` [Example 6, (4-Hydroxy-3-5-diisopropylphenyl)(4-methylpiperazin-1-yl)methanone], the midpoint of the response on α1 glycine receptor, the EC50, lay at 0.0012 nM.

Turning to `CC(C)(C)c1cc(C(=O)N2CCOCC2)cc(C(C)(C)C)c1O` [LT-01-89, (4-(hydroxy)-3,5-di-tertbutyl)(morpholino)methanone, reference compound], in data set [1], the “AUC∞ (area)” value was determined as 5931.7 ng·h/mL, the “CL (area)/kg” value stood at 17.947 mL/min/kg, the Cmax (commonly the maximum level reached in the sampled fluid or tissue) amounted to 471.2 ng/mL and the “Half Life” value was 20.4 h. In data set [1], the time to peak (Tmax) (commonly the time at which the peak concentration occurs) worked out at 1.2 h and the “Vd (area)/kg” value was 32.7299 L/kg. Moreover, the “Mechanical pressure Percentage reversal of predose hyperalgesia” value (shortened to “Mechanical pressure Percentage reversal”) with neuropathic rats [2] (1 hr) is listed as 1 hr - - - 70%. In addition, in the data set on neuropathic rats [2] (3 hr), the “Mechanical pressure Percentage reversal” value worked out at 3 hr - - - 50%. Also, in the data set on neuropathic rats [2] (6 hr), the “Mechanical pressure Percentage reversal” value is 6 hr - - - 20%. In the data set “Rat microsomal stability”, this compound gave a Cl of 20.38 mL/min/kg and a t1/2 of 2.02 h. Further, in the data set “Rat microsomal stability” (second set marked *), the “Cl (values marked *)” value is 5.26 mL/min/kg (Cl)* and the “t1/2 (values marked *)” value is listed as 165 min (t1/2)*. In data set [3], the “Cl (values marked *)” value is listed as 6.2 mL/min/kg (Cl) * and the “t1/2 (values marked *)” value is reported as 138.6 min (t1/2) *. Also, in the data set on neuropathic rats [4] (1 hr), the “Cold (10° C.) Stimulus Percentage reversal of predose Hyperalgesia” value is reported as 1 hr - - - 70%. The “Cold (10° C.) Stimulus Percentage reversal of predose Hyperalgesia” value in the data set on neuropathic rats [4] (3 hr) was found to be 3 hr - - - 65%. Moreover, in the data set with neuropathic rats [4] (6 hr), the “Cold (10° C.) Stimulus Percentage reversal of predose Hyperalgesia” value worked out at 6 hr - - - 10%. For the same compound, in [5], the CSF levels was 27 ng/mL and the “CSF levels as multiple of EC50” value is “(180 × EC50)”.

`Nc1nnc(-c2cccc(Cl)c2Cl)c(N)n1` [lamotrigine, reference compound]: in the data set with neuropathic rats [6], the “Reversal, mechanical (positive control)” value was found to be 65%. Also, the “Reversal, cold (positive control)” value with neuropathic rats [7] is on record as 72%.
